{"source": "patent US20120003310A1", "about": "(priority 2009, published 2012)", "key": {"[1]": {"conditions": "citrate salt of the drug substance, per reference; cited from earlier work"}, "[2]": {"assay": "Rasagiline citrate salt formation in solvents: extractable free rasagiline base (toluene extraction, TLC), pH, NMR equivalents", "conditions": "for Extracted R-PAI (%) / Extracted R-PAI (amount): free rasagiline base extracted or filtered from the citrate salt solution, solvent and mole proportions per example; for pH (after extraction of R-PAI): value in parentheses", "from_the_text": "(§1) The combined toluenic extract was evaporated to dryness.\nas §1"}, "[3]": {"conditions": "per reference; cited from earlier work"}, "[4]": {"conditions": "per reference; cited from earlier work", "remark": "listed apart in the source"}, "[5]": {"assay": "Hygroscopicity: citrate salts exposed to atmospheric air in open dishes at ambient temperature", "format": "physicochemical", "conditions": "for Changes on exposure to atmosphere (appearance): open dish, ambient temperature", "from_the_text": "(§2) The changes were observed and recorded."}, "[6]": {"assay": "Appearance of citrate salts stored in closed sealed glass vials in refrigerator at 7±2° C.", "format": "physicochemical", "conditions": "sealed glass vial, refrigerator 7±2° C.", "from_the_text": "as §2"}, "[7]": {"conditions": "such as hexane, toluene and ethylacetate"}, "[8]": {"conditions": "AZILECT Product Label, May 2006; cited from earlier work"}, "[9]": {"assay": "Aqueous solubility of rasagiline base and rasagiline salts"}, "[10]": {"conditions": "time of exposure 1:50-2:00 hrs:min"}}, "data": [{"compound": "C[C@@H]1CCCN1CCc1ccc2cc(-n3ncccc3=O)ccc2c1", "values": [{"measurement": "Polynorpb", "setting": "[1]", "value": "Crystalline"}]}, {"compound": "N#Cc1ccc2[nH]c(O)c(-c3ccc(CN4CCOCC4)cn3)c2c1", "values": [{"measurement": "Polynorpb", "setting": "[1]", "value": "Crystalline"}]}, {"compound": "C[C@@H]1CCN(C(=O)CC#N)C[C@@H]1N(C)c1ncnc2[nH]ccc12", "values": [{"measurement": "Polynorpb", "setting": "[1]", "value": "Crystalline"}]}, {"compound": "CN1CCN(c2ccccc2C=C2SCCN(c3ccc(Cl)c(Cl)c3)C2=O)CC1", "values": [{"measurement": "Polynorpb", "setting": "[1]", "value": "Crystalline"}]}, {"compound": "Cc1ccc(NC(=O)c2ccc(CN3CCN(C)CC3)cc2)cc1Nc1nccc(-c2cccnc2)n1", "values": [{"measurement": "Polynorpb", "setting": "[1]", "value": "Crystalline"}]}, {"compound": "Cc1[nH]c(C=C2C(=O)Nc3ccc(F)cc32)c(C)c1C(=O)NCCN1CCCC1", "values": [{"measurement": "Polynorpb", "setting": "[1]", "value": "Crystalline"}]}, {"compound": "O=C(O)CC(O)(CC(=O)O)C(=O)O.c1cnc2cc3c(cc2n1)C1CNCC3C1", "values": [{"measurement": "Polynorpb", "setting": "[1]", "value": "Crystalline"}]}, {"compound": "C#CCN[C@@H]1CCc2ccccc21.O=C(O)CC(O)(CC(=O)O)C(=O)O", "values": [{"measurement": "free rasagiline that may be extracted from the aqueous solution of the salt", "setting": "[2]", "value": "A few percent"}, {"measurement": "stability of the salt in solvents", "setting": "[2]; aqueous and other solutions (alcohol, MEK, acetone)", "value": "stable in most solvents"}]}, {"compound": "Cl", "note": "[Chloride]", "values": [{"measurement": "Hygroscopicity by KF", "setting": "[3]", "value": "Not hygroscopic"}]}, {"compound": "C#CCN[C@@H]1CCc2ccccc21.C#CCN[C@@H]1CCc2ccccc21.O=S(=O)(O)CCS(=O)(=O)O", "note": "[Edisilate]", "values": [{"measurement": "Hygroscopicity by KF", "setting": "[3]", "value": "Not hygroscopic"}]}, {"compound": "C#CCN[C@@H]1CCc2ccccc21.CCS(=O)(=O)O", "note": "[Esylate]", "values": [{"measurement": "Water solubility", "setting": "[4]", "value": ">=300 mg/ml"}]}, {"compound": "C#CCN[C@@H]1CCc2ccccc21.O=C(O)CC(O)(CC(=O)O)C(=O)O", "note": "[Example 4b]", "values": [{"measurement": "Changes on exposure to atmosphere (appearance)", "setting": "[5]; time of exposure 0:00 hrs:min", "value": "Powder"}, {"measurement": "Changes on exposure to atmosphere (appearance)", "setting": "[5]; [10]", "value": "Semi-solid"}, {"measurement": "Changes on exposure to atmosphere (appearance)", "setting": "[5]; time of exposure 6:00 hrs:min", "value": "Syrup"}, {"measurement": "Changes on exposure to atmosphere (appearance)", "setting": "[5]; time of exposure 7:00 hrs:min", "value": "Syrup"}, {"measurement": "Appearance", "setting": "[6]; storage 0 months", "value": "White powder"}, {"measurement": "Appearance", "setting": "[6]; storage 3 months", "value": "White powder"}, {"measurement": "Appearance", "setting": "[6]; storage 6 months", "value": "White powder"}]}, {"compound": "C#CCN[C@@H]1CCc2ccccc21.C#CCN[C@@H]1CCc2ccccc21.O=C(O)CC(O)(CC(=O)O)C(=O)O", "note": "[Example 4c]", "values": [{"measurement": "Changes on exposure to atmosphere (appearance)", "setting": "[5]; time of exposure 0:00 hrs:min", "value": "Powder"}, {"measurement": "Changes on exposure to atmosphere (appearance)", "setting": "[5]; time of exposure 0:50-1:00 hrs:min", "value": "Powder"}, {"measurement": "Changes on exposure to atmosphere (appearance)", "setting": "[5]; time of exposure 0:30 hrs:min", "value": "Powder"}, {"measurement": "Changes on exposure to atmosphere (appearance)", "setting": "[5]; [10]", "value": "Powder"}, {"measurement": "Changes on exposure to atmosphere (appearance)", "setting": "[5]; time of exposure 5:00 hrs:min", "value": "Lump powder"}, {"measurement": "Appearance", "setting": "[6]; storage 0 months", "value": "White powder"}, {"measurement": "Appearance", "setting": "[6]; storage 3 months", "value": "White powder"}, {"measurement": "Appearance", "setting": "[6]; storage 6 months", "value": "White powder"}]}, {"compound": "C#CCN[C@@H]1CCc2ccccc21.C#CCN[C@@H]1CCc2ccccc21.C#CCN[C@@H]1CCc2ccccc21.O=C(O)CC(O)(CC(=O)O)C(=O)O", "note": "[Example 4d]", "values": [{"measurement": "Changes on exposure to atmosphere (appearance)", "setting": "[5]; time of exposure 0:00 hrs:min", "value": "Powder"}, {"measurement": "Changes on exposure to atmosphere (appearance)", "setting": "[5]; time of exposure 0:30 hrs:min", "value": "Powder"}, {"measurement": "Changes on exposure to atmosphere (appearance)", "setting": "[5]; time of exposure 5:00 hrs:min", "value": "Semi-solid"}, {"measurement": "Changes on exposure to atmosphere (appearance)", "setting": "[5]; time of exposure 6:00 hrs:min", "value": "Semi-solid"}, {"measurement": "Appearance", "setting": "[6]; storage 0 months", "value": "White powder"}, {"measurement": "Appearance", "setting": "[6]; storage 3 months", "value": "White powder"}, {"measurement": "Appearance", "setting": "[6]; storage 6 months", "value": "White powder"}]}, {"compound": "C#CCN[C@@H]1CCc2ccccc21.O=C(O)CC(O)(CC(=O)O)C(=O)O", "note": "[Example 19.1]", "values": [{"measurement": "Extracted R-PAI (%)", "setting": "[2]", "value": 1.75, "unit": "%"}, {"measurement": "Extracted R-PAI (amount)", "setting": "[2]", "value": 0.06, "unit": "g"}]}, {"compound": "C#CCN[C@@H]1CCc2ccccc21.O=C(O)CC(O)(CC(=O)O)C(=O)O", "note": "[Example 19.4]", "values": [{"measurement": "Extracted R-PAI (%)", "setting": "[2]", "value": "(22%)"}, {"measurement": "Extracted R-PAI (amount)", "setting": "[2]", "value": 1.51, "unit": "g"}]}, {"compound": "C#CCN[C@@H]1CCc2ccccc21.O=C(O)CC(O)(CC(=O)O)C(=O)O", "note": "[Example 19.6]", "values": [{"measurement": "Extracted R-PAI (%)", "setting": "[2]", "value": "(43.3%)"}, {"measurement": "Extracted R-PAI (amount)", "setting": "[2]", "value": 4.44, "unit": "g"}]}, {"compound": "C#CCN[C@@H]1CCc2ccccc21.O=C(O)CC(O)(CC(=O)O)C(=O)O", "note": "[Example 19.7]", "values": [{"measurement": "Extracted R-PAI (%)", "setting": "[2]", "value": "(38.2%)"}, {"measurement": "Extracted R-PAI (amount)", "setting": "[2]", "value": 3.92, "unit": "g"}]}, {"compound": "C#CCN[C@@H]1CCc2ccccc21.O=C(O)CC(O)(CC(=O)O)C(=O)O", "note": "[Example 19.13]", "values": [{"measurement": "Extracted R-PAI (%)", "setting": "[2]", "value": "(48%)"}, {"measurement": "Extracted R-PAI (amount)", "setting": "[2]", "value": 2.47, "unit": "g"}]}, {"compound": "C#CCN[C@@H]1CCc2ccccc21.O=C(O)CC(O)(CC(=O)O)C(=O)O", "note": "[Example 19.14]", "values": [{"measurement": "pH (after extraction of R-PAI)", "setting": "[2]", "value": 3.49}, {"measurement": "pH", "setting": "[2]; value outside parentheses, before extraction of R-PAI", "value": 3.53}]}, {"compound": "C#CCN[C@@H]1CCc2ccccc21.O=C(O)CC(O)(CC(=O)O)C(=O)O", "note": "[Example 19.17]", "values": [{"measurement": "pH (after extraction of R-PAI)", "setting": "[2]", "value": "(3.41)"}]}, {"compound": "C#CCN[C@@H]1CCc2ccccc21", "note": "[Mesylate]", "values": [{"measurement": "Hygroscopicity by KF", "setting": "[3]", "value": "Not hygroscopic"}]}, {"compound": "C#CCN[C@@H]1CCc2ccccc21", "note": "[Solid R-PAI (Free Base)]", "values": [{"measurement": "Hygroscopicity by KF", "setting": "[3]", "value": "Not hygroscopic"}, {"measurement": "Water solubility", "setting": "[4]", "value": "low"}]}, {"compound": "O=C(O)CC(O)(CC(=O)O)C(=O)O", "note": "[citric acid]", "values": [{"measurement": "Hygroscopicity by KF", "setting": "[3]", "value": "low"}]}, {"compound": "C#CCN[C@@H]1CCc2ccccc21", "note": "[rasagiline, R(+)-N-propargyl-1-aminoindan]", "values": [{"measurement": "solubility in non-polar organic solvents", "setting": "[7]", "value": "very soluble"}, {"measurement": "absolute bioavailability", "setting": "[8]", "value": "about 36%"}, {"measurement": "amount dissolving in aqueous reaction solution of citric acid", "setting": "[9]", "value": "more than 10 wt %"}]}, {"compound": "Oxalate", "values": [{"measurement": "Hygroscopicity by KF", "setting": "[3]", "value": "Not hygroscopic"}]}, {"compound": "Phosphate", "values": [{"measurement": "Water solubility", "setting": "[4]", "value": ">=720 mg/ml"}]}, {"compound": "Tosylate", "values": [{"measurement": "Water solubility", "setting": "[4]", "value": "60 to 70", "unit": "mg/mL"}]}, {"compound": "rasagiline citrate", "values": [{"measurement": "hygroscopicity compared to rasagiline base and other rasagiline salts", "setting": "[5]; Tables 22b and 22c", "value": "highest hygroscopicity"}, {"measurement": "water solubility compared to rasagiline base and other rasagiline salts", "setting": "[9]; Tables 22b and 22c", "value": "highest water solubility"}]}]}
